Source: patent publication US20240408085A1, “COMPOUND FOR DEGRADATION OF BCL-2 FAMILY PROTEINS AND MEDICAL APPLICATION THEREOF” (XIZANG HAISCO PHARMACEUTICAL CO., LTD., priority 2021, published 2024)
Like-named read-outs stand apart in the source and are kept apart here.

What was measured:
[1] = target: T1, BCL-xL proteins (Homo sapiens, UniProt Q07817); test: BCL-xL degradation activity in MOLT-4 cells (western blot, 16 h); format: cell-based
T1 construct: degradation effect on the BCL-xL proteins in MOLT-4 cells; host or cells: MOLT-4
T1 sequence (Q07817 whole entry): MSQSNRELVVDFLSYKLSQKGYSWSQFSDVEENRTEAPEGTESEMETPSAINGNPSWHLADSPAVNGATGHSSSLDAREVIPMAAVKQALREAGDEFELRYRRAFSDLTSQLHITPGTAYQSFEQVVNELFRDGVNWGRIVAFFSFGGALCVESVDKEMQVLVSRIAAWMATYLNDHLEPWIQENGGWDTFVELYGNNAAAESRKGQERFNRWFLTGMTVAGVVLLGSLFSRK
Procedure: MOLT-4 cells are acute lymphoblastic leukemia cell lines in humans. The cells were purchased from ATCC. Culture conditions: RPMI-1640+10% FBS+1% penicillin-streptomycin solution. The cells were cultured in a 37° C., 5% CO2 incubator. The cells were plated in a 12-well plate, with 2×10^5 cells/well. After plating, compounds at different concentrations were added and cultured in a 37° C., 5% CO2 incubator for 16 h. After the completion of culture, the cells were harvested and RIPA lysis buffer (beyotime, Cat. P0013B) was added. The cells were lysed on ice for 15 minutes and centrifuged at 12000 rpm at 4° C. for 10 minutes. The supernatant protein samples were collected and the protein was quantified by using the BCA kit (Beyotime, Cat. P0009). Then the protein was diluted to 0.8 mg/mL. The expressions of BCL-xL (CST, Cat. 2764S), BCL-2 (CST, Cat. 15071S) and the internal reference β-actin (CST, Cat. 3700S) were detected using a fully automated western blot quantitative analyzer (Proteinsimple). The expression level of BCL-xL or BCL-2 relative to the internal reference was calculated by using Compass software, and the DC50 value was calculated by using GraphPad Prism 8.0 software according to formula (1), wherein the Proteinadministration denoted the relative expression level of BCL-xL or BCL-2 in administration groups at different doses, and the Proteinvehicle denoted the relative expression level of BCL-xL or BCL-2 in the vehicle control group.
Protein %=Proteinadministration/Proteinvehicle×100% formula (1)

[2] = tested on: MOLT-4 cells; test: Cell proliferation activity in MOLT-4 cells (72 h, cell viability luminescence); format: cell-based, human; conditions: read-out: IC50 for the inhibition of MOLT-4 cell proliferation
Summary of the method: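 Human acute lymphoblastic leukemia cells were seeded at 5×10^3 cells/well in RPMI-1640 with 10% FBS. They were treated with serially varied compound concentrations for 72 h at 37° C., 5% CO2. A luminescent viability reagent was used for read-out. IC50 was derived relative to vehicle control; maximum inhibition was the inhibition rate at the highest concentration.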

| Structure (SMILES) | DC50 [1] [nM] | IC50 [2] [nM] | IC50 ([2]; Homo sapiens) [nM] |
| --- | --- | --- | --- |
| Cc1ncsc1-c1ccc([C@H](C)NC(=O)[C@@H]2C[C@@H](O)CN2C(=O)[C@@H](NC(=O)CCCCCC(=O)N2C[C@H]3CN(CC[C@H](CSc4ccccc4)Nc4ccc(S(=O)(=O)NC(=O)c5ccc(N6CCN(CC7=C(c8ccc(Cl)cc8F)CCC(C)(C)C7)CC6)cc5)cc4S(=O)(=O)C(F)(F)F)C[C@H]3C2)C(C)(C)C)cc1 (relative stereo) [Compound 14, cis-(2S,4R)-1-((S)-2-(7-(5-((R)-3-((4-(N-(4-(4-((4′-chloro-2′-fluoro-4,4-dimethyl-3,4,5,6-tetrahydro-[1,1′-biphenyl]-2-yl)methyl)piperazin-1-yl)benzoyl)sulfamoyl)-2-((trifluoromethyl)sulfonyl)phenyl)amino)-4-(phenylthio)butyl)hexahydropyrrolo[3,4-c]pyrrol-2(1H)-yl)-7-oxoheptanamido)-3,3-dimethylbutanoyl)-4-hydroxy-N—((S)-1-(4-(4-methylthiazol-5-yl)phenyl)ethyl) pyrrolidine-2-carboxamide] | 8.1 | < 500 | – |
| Cc1ncsc1-c1ccc([C@H](C)NC(=O)[C@@H]2C[C@@H](O)CN2C(=O)[C@@H](NC(=O)CCCCCC(=O)N2C[C@H]3CN(CC[C@H](CSc4ccccc4)Nc4ccc(S(=O)(=O)NC(=O)c5ccc(N6CCN(CC7=C(c8ccc(Cl)cc8)CCC(C)(C)C7)CC6)cc5)cc4S(=O)(=O)C(F)(F)F)C[C@H]3C2)C(C)(C)C)cc1 [Compound 8, cis-(2S,4R)-1-((2S)-2-(7-(5-((R)-3-((4-(N-(4-(4-((4′-chloro-4,4-dimethyl-3,4,5,6-tetrahydro-[1,1′-biphenyl]-2-yl)methyl)piperazin-1-yl)benzoyl)sulfamoyl)-2-((trifluoromethyl)sulfonyl)phenyl)amino)-4-(phenylthio)butyl)hexahydropyrrolo[3,4-c]pyrrol-2(1H)-yl)-7-oxoheptanamido)-3,3-dimethylbutanoyl)-4-hydroxy-N—((S)-1-(4-(4-methylthiazol-5-yl)phenyl)ethyl)pyrrolidine-2-carboxamide] | 8.8 | – | < 500 |
| Cc1ncsc1-c1ccc([C@H](C)NC(=O)[C@@H]2C[C@@H](O)CN2C(=O)[C@@H](NC(=O)CCCCCC(=O)N2CCN(CC[C@H](CSc3ccccc3)Nc3ccc(S(=O)(=O)NC(=O)c4ccc(N5CCN(C/C6=C(\c7ccc(Cl)cc7)CCCCCC6)CC5)cc4)cc3S(=O)(=O)C(F)(F)F)CC2)C(C)(C)C)cc1 [Compound 43, (2S,4R)-1-((S)-2-(7-(4-((R)-3-((4-(N-(4-(4-((2-(4-chlorophenyl)cyclooct-1-en-1-yl)methyl)piperazin-1-yl)benzoyl)sulfamoyl)-2-((trifluoromethyl)sulfonyl)phenyl)amino)-4-(phenylthio)butyl)piperazin-1-yl)-7-oxoheptanamido)-3,3-dimethylbutanoyl)-4-hydroxy-N—((S)-1-(4-(4-methylthiazol-5-yl)phenyl)ethyl)pyrrolidine-2-carboxamide] | – | – | < 500 |
| O=C1CCC(N2C(=O)c3ccc(N4CC(CN5CCN(CC[C@H](CSc6ccccc6)Nc6ccc(S(=O)(=O)NC(=O)c7ccc(N8CCN(CC9=C(c%10ccc(Cl)cc%10)CCCCC9)CC8)cc7)cc6S(=O)(=O)C(F)(F)F)CC5)C4)cc3C2=O)C(=O)N1 (stereo partly drawn) [Compound 44, 4-(4-((2-(4-chlorophenyl)cyclohept-1-en-1-yl)methyl)piperazin-1-yl)-N-((4-(((2R)-4-(4-((1-(2-(2,6-dioxopiperidin-3-yl)-1,3-dioxoisoindolin-5-yl)azetidin-3-yl)methyl)piperazin-1-yl)-1-(phenylthio)butan-2-yl)amino)-3-((trifluoromethyl)sulfonyl)phenyl)sulfonyl)benzamide] | – | – | < 500 |
| O=C1CCC(N2C(=O)c3ccc(N4CCC(CN5CCN(CC[C@H](CSc6ccccc6)Nc6ccc(S(=O)(=O)NC(=O)c7ccc(N8CCN(CC9=C(c%10ccc(Cl)cc%10)CCCCC9)CC8)cc7)cc6S(=O)(=O)C(F)(F)F)CC5)CC4)cc3C2=O)C(=O)N1 (stereo partly drawn) [Compound 45, 4-(4-((2-(4-chlorophenyl)cyclohept-1-en-1-yl)methyl)piperazin-1-yl)-N-((4-(((2R)-4-(4-((1-(2-(2,6-dioxopiperidin-3-yl)-1,3-dioxoisoindolin-5-yl)piperidin-4-yl)methyl)piperazin-1-yl)-1-(phenylthio)butan-2-yl)amino)-3-((trifluoromethyl)sulfonyl)phenyl)sulfonyl)benzamide] | – | – | < 500 |
| Cc1ncsc1-c1ccc([C@H](C)NC(=O)[C@@H]2C[C@@H](O)CN2C(=O)[C@@H](NC(=O)CCCCCC(=O)N2CCN(CC[C@H](CSc3ccccc3)Nc3ccc(S(=O)(=O)NC(=O)c4ccc(N5CCN(CC6=C(c7ccc(C#N)cc7)CCC(C)(C)C6)CC5)cc4)cc3S(=O)(=O)C(F)(F)F)CC2)C(C)(C)C)cc1 [Trifluoroacetate of compound 4, (2S,4R)-1-((S)-2-(7-(4-((R)-3-((4-(N-(4-(4-((4′-cyano-4,4-dimethyl-3,4,5,6-tetrahydro-[1,1′-biphenyl]-2-yl)methyl)piperazin-1-yl)benzoyl)sulfamoyl)-2-((trifluoromethyl)sulfonyl)phenyl)amino)-4-(phenylthio)butyl)piperazin-1-yl)-7-oxoheptanamido)-3,3-dimethylbutanoyl)-4-hydroxy-N—((S)-1-(4-(4-methylthiazol-5-yl)phenyl)ethyl)pyrrolidine-2-carboxamide] | – | – | < 500 |
| Cc1ncsc1-c1ccc([C@H](C)NC(=O)[C@@H]2C[C@@H](O)CN2C(=O)[C@@H](NC(=O)CCCCCC(=O)N2CCN(CC[C@H](CSc3ccccc3)Nc3ccc(S(=O)(=O)NC(=O)c4ccc(N5CCN(CC6=C(c7ccc(Cl)cc7)CCCCC6)CC5)cc4)cc3S(=O)(=O)C(F)(F)F)CC2)C(C)(C)C)cc1 [Trifluoroacetate of compound 6, (2S,4R)-1-((S)-2-(7-(4-((R)-3-((4-(N-(4-(4-((2-(4-chlorophenyl)cyclohept-1-en-1-yl)methyl)piperazin-1-yl)benzoyl)sulfamoyl)-2-((trifluoromethyl)sulfonyl)phenyl)amino)-4-(phenylthio)butyl)piperazin-1-yl)-7-oxoheptanamido)-3,3-dimethylbutanoyl)-4-hydroxy-N—((S)-1-(4-(4-methylthiazol-5-yl)phenyl)ethyl)pyrrolidine-2-carboxamide] | – | – | < 500 |
| Cc1ncsc1-c1ccc([C@H](C)NC(=O)[C@@H]2C[C@@H](O)CN2C(=O)[C@@H](NC(=O)CCCCCC(=O)N2CCC3(CC2)CN(CC[C@H](CSc2ccccc2)Nc2ccc(S(=O)(=O)NC(=O)c4ccc(N5CCN(CC6=C(c7ccc(Cl)cc7)CCC(C)(C)C6)CC5)cc4)cc2S(=O)(=O)C(F)(F)F)C3)C(C)(C)C)cc1 [Trifluoroacetate of compound 9, (2S,4R)-1-((S)-2-(7-(2-((R)-3-((4-(N-(4-(4-((4′-chloro-4,4-dimethyl-3,4,5,6-tetrahydro-[1,1′-biphenyl]-2-yl)methyl)piperazin-1-yl)benzoyl)sulfamoyl)-2-((trifluoromethyl)sulfonyl)phenyl)amino)-4-(phenylthio)butyl)-2,7-diazaspiro[3.5]nonan-7-yl)-7-oxoheptanamido)-3,3-dimethylbutanoyl)-4-hydroxy-N—((S)-1-(4-(4-methylthiazol-5-yl)phenyl)ethyl)pyrrolidine-2-carboxamide] | – | – | < 500 |
